Converted amounts (≈) assume the structure as drawn. Where two headings read alike, the source gives them in different places.
Columns and labels:
[1] = Volatility of pure compound by thermogravimetric determination; type: physicochemical; conditions: heating-up rate 10° C./min; for Volatility: temperature at weight drop of 2%: weight drop 2%; for Volatility: temperature at weight drop of 50%: weight drop 50%; for Volatility: temperature at weight drop of 80%: weight drop 80%
Method: To test volatility, the quadratic acid bisamides or the synthetic resins treated therewith were subjected to thermogravimetric determination (cf. Tables 1 and 6). The heating-up rate was 10° C./min. A DuPont 950 Thermogravimetric Analyzer was applied.

[2] = Extraction of stabilizers from polyamide 12 with boiling organic solvents; type: physicochemical; conditions: 0.25% by weight stabilizer
Source text: (a) Polyamide 12 (Number Average Mol. Wt. 30,000: Producer: Chemische Werke Hus AG, D-4370 Marl)
In a pug mill, polyamide 12 granules were combined with quadratic acid bisamides, and the resultant mixture was homogenized in a twin screw extruder. The granulated material obtained in this way was then molded into panels having a thickness of 1 mm, and chips of 30×10 mm were then cut therefrom.
(§1) The solubility values in water and dilute acetic acid (Tables 2 and 3), as well as the extraction values (Tables 4 and 7) confirm the low migrating tendency of the compounds according to the present invention.

[3] = Light exposure test (buckling test) with stabilizers in polyamide 12
[4] = Solubility of pure compound in 10% acetic acid; type: physicochemical; conditions: 22° C.; for solubility: 10% acetic acid
Source text: as §1

[5] = Volatility (sublimation) of stabilizers from polyether esters; type: physicochemical; conditions: from polyether ester; 195° C. and 0.1 mbar; 0.5% by weight
[6] = Extraction of stabilizers from polyether esters with boiling organic solvents; type: physicochemical; conditions: from polyether ester
Source text: (b) Polyether Esters (Number Average Mol. Wt. 25,000)
Into a polyether ester melt based on terephthalic acid, 1,4-butanediol, and polytetrahydrofuran, 0.5% by weight of the respective quadratic acid amide was introduced. After processing into granules, the latter were used to make press-molded panels of a thickness of 1 mm, from which chips were cut of 30×10 mm.
as §1

[7] = Light exposure test (buckling test) with stabilizers in polypropylene
[8] = Solubility of pure compound in water; type: physicochemical
Source text: as §1

[9] = with costabilizer mixture (benzotriazole, hexamethylenediamine phenol, phosphite; 0.25% each), 0.25% by wt. stabilizer (for salts: refers to the bisamide)
[10] = without costabilizer, 0.25% by wt. stabilizer (for salts: refers to the bisamide on which the salt is based)

Stabilizing effect in polyamide 12, light exposure to break [3, 9] | Stabilizing effect in polyamide 12, light exposure to break [3, 10] [h] | Compound | solubility ([8]; 22° C.) [µg/mL] | solubility ([8]; 100° C.) [µg/mL] | also measured
 |  | CC1(C)CC2(CC(C)(C)N1)OC1(CCCCCCCCCCC1)NC2=O [B, 2,2,4,4-tetramethyl-3,20-diaza-7-oxa-21-oxodispiro[5,1,11,2]heneicosane] |  |  | Volatility: temperature at weight drop of 2% [1]: 200 °C; Volatility: temperature at weight drop of 50% [1]: 280 °C; Volatility: temperature at weight drop of 80% [1]: 300 °C; Degree of extraction after 8 hour treatment ([2]; boiling chloroform): 97.2 % of Maximally Extractable Amo; Degree of extraction after 8 hour treatment ([2]; boiling methanol): 83.1 % of Maximally Extractable Amo
511 h | 460 | CCN(CC)c1c([O-])c(=[N+](CC)CC)c1=O [C, 1,3-Bis(diethylamino)cyclobutenediylium-2,4-diolate, reference compound] |  |  | 
 |  | CC1(C)CC(OC(=O)CCCCCCCCC(=O)OC2CC(C)(C)NC(C)(C)C2)CC(C)(C)N1 [Comparative Example A, sebacic acid di-4-hydroxy-2,2,6,6-tetramethylpiperidine ester] |  |  | Volatility: temperature at weight drop of 2% [1]: 220 °C; Volatility: temperature at weight drop of 50% [1]: 285 °C; Volatility: temperature at weight drop of 80% [1]: 300 °C; solubility [4]: 402000 µg/mL (≈ 836000 µM); Degree of extraction after 8 hour treatment ([2]; boiling chloroform): 69.9 % of Maximally Extractable Amo; Degree of extraction after 8 hour treatment ([2]; boiling methanol): 68.7 % of Maximally Extractable Amo; Degree of sublimation after 24-hour treatment [5]: 88 % of Maximally Sublimable Quan; Degree of extraction after 8-hour treatment ([6]; methanol (65° C.)): 60 % of Maximally Extractable Qua; Degree of extraction after 8-hour treatment ([6]; toluene (110° C.)): 53 % of Maximally Extractable Qua; Stabilizing effect in polypropylene, light exposure to break ([7]; 0.2% by wt. stabilizer): 277 h
473 h | 432 | C[C@@H]1CN(c2c([O-])c(=[N+]3C[C@@H](C)O[C@@H](C)C3)c2=O)C[C@H](C)O1 [E, 1,3-Bis(cis-2,6-dimethylmorpholino)cyclobutenediylium-2,4-diolate, reference compound] |  |  | 
1,076 h | 790 | CC1(C)CC(N=c2c(O)c(NC3CC(C)(C)NC(C)(C)C3)c2=O)CC(C)(C)N1 [Example 1, 1,3-Bis[2,2,6,6-tetramethyl-4-piperidylamino]cyclobutenediylium-2,4-diolate] | < 20 | 150 (≈ 384 µM) | 
 |  | CC1(C)CC(N=c2c(O)c(NC3CC(C)(C)NC(C)(C)C3)c2=O)CC(C)(C)N1 [Example 1.1, 1,3-bis[2,2,6,6-tetramethyl-4-piperidylamino]cyclobutenediylium-2,4-diolate] |  |  | Solubility of pure compound in 10% acetic acid [4]: 4.6 g/100 g 10% HAc
1,120 h | 780 | CC1(C)CC(N=c2c(O)c(NC3CC(C)(C)NC(C)(C)C3)c2=O)CC(C)(C)N1 [Example 1.2, 1,3-bis[2,2,6,6-tetramethyl-4-piperidylamino]cyclobutenediylium-2,4-diolate] |  |  | Solubility of pure compound in 10% acetic acid [4]: 2.4 g/100 g 10% HAc
976 h | 683 | CC1(C)CC(N=c2c(O)c(NC3CC(C)(C)NC(C)(C)C3)c2=O)CC(C)(C)N1 [Example 1.3, 1,3-bis[2,2,6,6-tetramethyl-4-piperidylamino]cyclobutenediylium-2,4-diolate] |  |  | Solubility of pure compound in 10% acetic acid [4]: 5.0 g/100 g 10% HAc
 |  | CC1(C)CC(N=c2c(O)c(NC3CC(C)(C)NC(C)(C)C3)c2=O)CC(C)(C)N1 [Example 1.4, 1,3-bis[2,2,6,6-tetramethyl-4-piperidylamino]cyclobutenediylium-2,4-diolate] |  |  | Solubility of pure compound in 10% acetic acid [4]: < 0.1 g/100 g 10% HAc
1,121 h | 720 | CC1(C)CC(N=c2c(O)c(NC3CC(C)(C)NC(C)(C)C3)c2=O)CC(C)(C)N1 [Example 1.5, 1,3-bis[2,2,6,6-tetramethyl-4-piperidylamino]cyclobutenediylium-2,4-diolate] |  |  | Solubility of pure compound in 10% acetic acid [4]: 0.9 g/100 g 10% HAc
 |  | CCCCN(c1c([O-])c(=[N+](CCCC)C2CC(C)(C)NC(C)(C)C2)c1=O)C1CC(C)(C)NC(C)(C)C1 [Example 3, 1,3-Bis[N-n-butyl-N-(2,2,6,6-tetramethyl-4-piperidyl)amino]cyclobutenediylium-2,4-diolate] | < 100 | 800 (≈ 1590 µM) | 
 |  | CC(C)CN(c1c([O-])c(=[N+](CC(C)C)C2CC(C)(C)NC(C)(C)C2)c1=O)C1CC(C)(C)NC(C)(C)C1 [Example 4, 1,3-Bis[N-isobutyl-N-(2,2,6,6-tetramethyl-4-piperidyl)amino]cyclobutenediylium-2,4-diolate] | < 100 | 700 (≈ 1390 µM) | 
 |  | CCCCCCN(c1c([O-])c(=[N+](CCCCCC)C2CC(C)(C)NC(C)(C)C2)c1=O)C1CC(C)(C)NC(C)(C)C1 [Example 5, 1,3-Bis[N-n-hexyl-(2,2,6,6-tetramethyl-4-piperidyl)amino]cyclobutenediylium-2,4-diolate] | < 100 | 300 (≈ 537 µM) | 
 |  | CCCCCCCCN(c1c([O-])c(=[N+](CCCCCCCC)C2CC(C)(C)NC(C)(C)C2)c1=O)C1CC(C)(C)NC(C)(C)C1 [Example 6, 1,3-Bis[N-n-octyl-N-(2,2,6,6-tetramethyl-4-piperidyl)amino]cyclobutenediylium-2,4-diolate] | < 100 | 200 (≈ 325 µM) | 
 |  | CC1(C)CC(N(CCO)c2c([O-])c(=[N+](CCO)C3CC(C)(C)NC(C)(C)C3)c2=O)CC(C)(C)N1 [Example 7, 1,3-Bis[N-2-hydroxyethyl-N-(2,2,6,6-tetramethyl-4-piperidyl)amino]cyclobutenediylium-2,4-diolate] |  |  | Stabilizing effect in polypropylene, light exposure to break [7]: 375 h
1,135 h | 820 | CC1(C)CC(OCCCN=c2c(O)c(NCCCOC3CC(C)(C)NC(C)(C)C3)c2=O)CC(C)(C)N1 [Example 9, 1,3-Bis[2,2,6,6-tetramethyl-4-piperidyloxypropylamino]cyclobutenediylium-2,4-diolate] | 2400 (≈ 4740 µM) | 9500 (≈ 18700 µM) | 
 |  | CC(CO)N=c1c(O)c(NC(C)CO)c1=O (stereo not drawn) [F, 1,3-Bis[(2-hydroxy-1-methylethyl)amino]cyclobutenediylium-2,4-diolate, reference compound] |  |  | solubility [4]: 222000 µg/mL (≈ 973000 µM)
619 h | 530 | O=c1c(N2CCCCC2)c([O-])c1=[N+]1CCCCC1 [G, 1,3-Bispiperidinocyclobutenediylium-2,4-diolate, reference compound] |  |  | Stabilizing effect in polypropylene, light exposure to break ([7]; 0.2% by wt. stabilizer): 212 h

Reference: patent US4537924A, “Quadratic acid amide derivatives, their use as stabilizers, and synthetic resins treated therewith” (Chemische Werke Huels, AG, priority 1982, dated 1985)
